Results published in patent publication US20230159511A1, “TETRAHYDROISOQUINOLINE COMPOUNDS AS NRF2 ACTIVATORS” (C4X Discovery Limited, priority 2020, published 2023).

Key:
[1] = molecular target: T1, human KEAP1 (N-term, residues 321-609) (Homo sapiens, UniProt Q14145); test: KEAP1 Kelch Fluorescence Polarization (FP) Assay; type: binding; conditions: inhibition of Kelch domain-NRF2 interaction; 2 nM FITC-labelled NRF2 peptide, 25 nM KEAP1, 1 h room temperature; compounds below 10 nM cannot be differentiated
T1 construct: human KEAP1 (N-term, residues 321-609)
Procedure, shortened: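 Compounds in 12-point curves (top 10 μM) displaced 2 nM FITC-labelled NRF2 peptide from 25 nM KEAP1 residues 321-609 over 1 h at room temperature. Polarization read at 470/530 nm, window set by 50 μM unlabelled peptide; four-parameter fit gave IC50, floor 10 nM.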

[2] = test system: NRF2 mediated gene NAD(P)H:quinone acceptor oxidoreductase 1 (NQO1) in BEAS-2B cells; test: Beas2B NQO1 mRNA Cell Based Assay; design: species or system human; conditions: Homo sapiens; BEAS-2B cells, compound for 24 h; increase in NQO1 mRNA compared to vehicle (0.1% DMSO) control; read-out: EC50
Method: Beas2B NQO1 mRNA Cell Based Assay
The up regulation of the NRF2 mediated gene NAD(P)H:quinone acceptor oxidoreductase 1 (NQO1) was measured using the following assay method: BEAS-2B cells (ATCC CRL-9609) were plated in 96-well clear plates at 20,000 cells/well in 75 μL of cell culture media and incubated overnight (37° C., 5% CO2). On day 2, 25 μL of compound or controls were added to the cells for 24 h. On day 3, the medium was aspirated from the plate and the Cells-to-CT™ 1-Step TaqMan® Kit (Ambion A25603) was used to perform expression analysis directly from cultured cells without RNA purification according to the manufacturer's instructions.
Briefly, cells were washed with ice cold PBS and 22.5 μL of room-temperature DNase/Lysis solution was added to the cells and incubated at room temperature for 5 minutes. To stop the reaction, 2.25 μL of stop solution was added to the cell lysate. The samples were diluted 1:5 using nuclease free water and 2.5 μL transferred into the PCR plate. Real-time PCR was performed using the C-1000 Thermal Cycler (Bio-Rad) using human beta actin as the internal control. The cDNA was amplified with a specific primer for NQO1 using the 1-step RT-PCR master mix (Ambion Cells-to-CTTM 1-Step TaqMan® Kit A25603). The primers/probes sets that were used for amplification of cDNA were obtained from TaqMan Gene Expression Assays (Applied Biosystems). The comparative CT (ΔΔCT) relative quantification method was used to calculate the relative mRNA level of the target gene NQO1 as described in the Applied Biosystems Chemistry Guide. The data are expressed as an increase in target gene mRNA compared to vehicle (0.1% DMSO) control and the EC50 values were determined by fitting the data to a four parameter logistic fit using XLfit or XE Runner within ActivityBase.

T1 sequence (Q14145 321-609): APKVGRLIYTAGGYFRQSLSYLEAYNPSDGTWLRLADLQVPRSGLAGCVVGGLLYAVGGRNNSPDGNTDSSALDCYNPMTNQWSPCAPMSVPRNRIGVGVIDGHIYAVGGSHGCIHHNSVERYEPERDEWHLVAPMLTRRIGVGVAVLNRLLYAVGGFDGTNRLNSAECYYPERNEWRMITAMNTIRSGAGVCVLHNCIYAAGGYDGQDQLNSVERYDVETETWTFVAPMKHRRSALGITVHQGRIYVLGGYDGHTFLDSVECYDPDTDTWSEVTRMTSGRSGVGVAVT

| SMILES | IC50 [1] [nM] | EC50 [2] [nM] |
| --- | --- | --- |
| NC(=O)[C@H]1CCCC[C@H]1C(=O)N1CCc2c(Cl)ccc(OCc3noc4ccccc34)c2[C@H]1CN1CCCC1=O [Example 54, (1S,2R)-2-((S)-8-(benzo[d]isoxazol-3-ylmethoxy)-5-chloro-1-((2-oxopyrrolidin-1-yl)methyl)-1,2,3,4-tetrahydroisoquinoline-2-carbonyl)cyclohexane-1-carboxamide, reference compound] | 31 | 135 |
| CNC(=O)[C@H]1CCCC[C@H]1C(=O)N1CCc2c(Br)ccc(OCc3noc(C(C)C)n3)c2[C@H]1CN1CCCC1=O [Example 55, (1S,2R)-2-((S)-5-bromo-8-((5-isopropyl-1,2,4-oxadiazol-3-yl)methoxy)-1-((2-oxopyrrolidin-1-yl)methyl)-1,2,3,4-tetrahydroisoquinoline-2-carbonyl)-N-methylcyclohexane-1-carboxamide] | 54 | 330 |
| CNC(=O)[C@H]1CCCC[C@H]1C(=O)N1CCc2c(Br)ccc(OCc3nnn(C)c3C(F)F)c2[C@H]1CN1Cc2ccccc2C1=O [Example 56, (1S,2R)-2-((S)-5-bromo-8-((5-(difluoromethyl)-1-methyl-1H-1,2,3-triazol-4-yl)methoxy)-1-((1-oxoisoindolin-2-yl)methyl)-1,2,3,4-tetrahydroisoquinoline-2-carbonyl)-N-methylcyclohexane-1-carboxamide] | 13 | 124 |
| CNC(=O)[C@H]1CCCC[C@H]1C(=O)N1CCc2c(Cl)ccc(OCc3noc(C(C)C)n3)c2[C@H]1CN1CCCC1=O [Example 57, (1S,2R)-2-((S)-5-chloro-8-((5-isopropyl-1,2,4-oxadiazol-3-yl)methoxy)-1-((2-oxopyrrolidin-1-yl)methyl)-1,2,3,4-tetrahydroisoquinoline-2-carbonyl)-N-methylcyclohexane-1-carboxamide] | 112 | 4000 |
| CNC(=O)[C@H]1CCCC[C@H]1C(=O)N1CCc2c(Cl)ccc(OCc3nnn(C)c3C(F)F)c2[C@H]1CN1CCCC1=O [Example 58, (1S,2R)-2-((S)-5-chloro-8-((5-(difluoromethyl)-1-methyl-1H-1,2,3-triazol-4-yl)methoxy)-1-((2-oxopyrrolidin-1-yl)methyl)-1,2,3,4-tetrahydroisoquinoline-2-carbonyl)-N-methylcyclohexane-1-carboxamide] | 11 | 206 |
| CNC(=O)[C@H]1CCCC[C@H]1C(=O)N1CCc2c(Cl)ccc(OCc3cccnc3)c2[C@H]1CN1CCCC1=O [Example 60, (1S,2R)-2-((S)-5-chloro-1-((2-oxopyrrolidin-1-yl)methyl)-8-(pyridin-3-ylmethoxy)-1,2,3,4-tetrahydroisoquinoline-2-carbonyl)-N-methylcyclohexane-1-carboxamide] | 72 | 650 |
| CNC(=O)[C@H]1CCCC[C@H]1C(=O)N1CCc2c(Cl)ccc(OCc3cccnn3)c2[C@H]1CN1CCCC1=O [Example 61, (1S,2R)-2-((S)-5-chloro-1-((2-oxopyrrolidin-1-yl)methyl)-8-(pyridazin-3-ylmethoxy)-1,2,3,4-tetrahydroisoquinoline-2-carbonyl)-N-methylcyclohexane-1-carboxamide] | 34 | 1080 |
| CNC(=O)[C@H]1CCCC[C@H]1C(=O)N1CCc2c(Cl)ccc(OCc3cnccn3)c2[C@H]1CN1CCCC1=O [Example 62, (1S,2R)-2-((S)-5-chloro-1-((2-oxopyrrolidin-1-yl)methyl)-8-(pyrazin-2-ylmethoxy)-1,2,3,4-tetrahydroisoquinoline-2-carbonyl)-N-methylcyclohexane-1-carboxamide] | 82 | 1460 |
| CNC(=O)[C@H]1CCCC[C@H]1C(=O)N1CCc2c(Cl)ccc(OCc3ccccn3)c2[C@H]1CN1CCCC1=O [Example 63, (1S,2R)-2-((S)-5-chloro-1-((2-oxopyrrolidin-1-yl)methyl)-8-(pyridin-2-ylmethoxy)-1,2,3,4-tetrahydroisoquinoline-2-carbonyl)-N-methylcyclohexane-1-carboxamide] | 340 | > 10000 |
